Tests used:
NCI-H292 tumor = test: NCI-H292 lung cancer xenograft model; type: in vivo, mice; details: versus control group; Antibody 2 40 mg/kg 3 times per week i.p.; Docetaxel 12 mg/kg q7d; through Day 26
Description: In order to test for activity of anti-VEGFR-3 antibodies in lung cancer, the NCI-H292 xenograft model is used. Nu/nu mice (female, 7-8 weeks of age) are injected subcutaneously with 2×10^6 NCI-H292 cells/mouse. When tumors reach approximately 300 mm^3, mice are randomized by tumor size into the following treatment groups (n=15): 1) USP saline at 10 μl/g, 3 times per week, i.p., starting on day 2. 2) Antibody 2 at 40 mg/kg, 3 times per week, i.p., starting day 2. 3) Docetaxel at 12 mg/kg, q7d, starting day 1. 4) Docetaxel at 12 mg/kg, q7d, starting day 1 plus Antibody 2 at 40 mg/kg, 3 times per week, starting day 2.
Tumor volumes are measured approximately twice a week and body weights are recorded at least twice a week for the duration of the study. At sacrifice, mice are euthanized by CO2 asphyxiation. The T/C % is calculated for each treatment group as the ratio of the relative tumor volume in the experimental groups versus the control group. Tumor growth and body weights are compared to the control group by repeated measures ANOVA through Day 26.

CAL27 tumors = test: CAL27 squamous cell carcinoma xenograft model; type: in vivo, mice; details: versus USP saline; Antibody 2 40 mg/kg 3 days per week; cisplatin 7 mg/kg q7d; through Day 61
Description: In order to test for activity of anti-VEGFR-3 antibodies in head and neck cancer, the CAL27 xenograft model is used. CAL27 cell suspension, at 1×10^7 cells/mouse, is injected s.c. into the left flank of 60 female athymic mice. When tumors reach ˜180 mm^3, eight days after cell implantation, the mice are randomized and divided into four treatment groups (n=12): 1.) USP saline control, 0.5 ml i.p., 3 days per week 2.) Antibody 2 at 40 mg/kg, 3 days per week 3.) cisplatin at 7 mg/kg, q7d 4.) Antibody 2 at 40 mg/kg, 3 days per week+cisplatin at 7 mg/kg, q7d.
Tumor measurements are recorded twice weekly; RM ANOVA through Day 61 is used to compare tumor growth among the treatment groups. Chi Squared tests are used to test for statistical significance in the number of tumor regressions among the treatment groups.

CC(=O)O[C@@]12CO[C@@H]1C[C@H](O)[C@@]1(C)C(=O)[C@H](O)C3=C(C)[C@@H](OC(=O)[C@H](O)[C@@H](NC(=O)OC(C)(C)C)c4ccccc4)C[C@@](O)([C@@H](OC(=O)c4ccccc4)[C@H]21)C3(C)C [Docetaxel]
T/C % (NCI-H292 tumor): 49%

N.N.[Cl][Pt][Cl] [cisplatin]
T/C % (CAL27 tumors): 39%
